# “Also recorded” adds a separate entry of the source.
# Key:
# [1] = system: mushroom tyrosinase; test: Tyrosinase inhibition, UV-Vis spectroscopic method (L-Tyr oxidation by tyrosinase/O2); assay type: biochemical
# Text: The capability of peptides to inhibit the activity of tyrosinase has been evaluated by a UV-Vis spectroscopic method monitoring the changes in the UV-Vis spectrum of its natural substrate, L-Tyr. […] The addition of enzyme firstly hydroxylated the L-Tyr residue to dihydroxyphenylalanine (DOPA) and successively oxidized DOPA to dopaquinone, which is then converted to dopachrome (Scheme 2). Both DOPA and dopaquinone appearance can be detected by the change in the UV-Vis spectrum. The hydroxylation of L-Tyr to DOPA is characterized by an increase in the intensity of the band at 275 nm and the appearance of an additional band at about 304 nm, while the oxidation to dopaquinone is made detectable by the appearance of a band at 470–490 nm. […] This phase is related to the monophenolase activity of the enzyme and essentially is due to the low amount of the oxy form of the tyrosinase enzyme in the commercially available preparation. Although other various factors may play an important role, including substrate and enzyme concentration, enzyme source, pH of the medium, and presence of hydrogen donors such as DOPA or other catechols, also the presence of transition metal ions can influence the presence and the length of this lag-phase.
# Millimolar peptide stock solutions were prepared in DMSO and then diluted to μM concentration by buffer in UV cells. […] The capability of peptides to inhibit the tyrosinase activity was evaluated at two different peptide concentrations, 2 and 0.2 µM.
# The capability of cyclic peptides to inhibit the oxidation of Tyr by the tyrosinase/O2 oxidizing system was monitored by means of a UV-Vis spectroscopy method, carried out in a Shimadzu UV-Visible UV-2501 spectral spectrophotometer using Helma (Mülheim, Germany) duple chambers UV-cell (2 × 4.375 mm). Briefly, 880 µL of a Tyr solution (2 mM) and 900 µL of a mushroom tyrosinase solution (2000 U/mL, Sigma-Aldrich), both dissolved in 50 mM phosphate buffer (pH 6.8), were separately introduced in the duple UV-cell chambers. A total of 20 µL of an appropriate DMSO stock solution of inhibitors (1.8, 0.18, or 0.018 mM) were added to the chamber containing the Tyr solution. The tyrosinase activity in absence of inhibitors was detected by adding 20 µL of DMSO. A background UV-Vis spectrum was acquired in the 250–800 nm wavelength range with a 2.0 nm slit and fast speed before starting the reaction. Thereafter, the solutions were mixed, and UV-Vis spectra were acquired at different time points after mixing. Three replicates were performed for each experiment. Data processing was performed with UV Probe (Shimazdu, Kyoto, Japan) and OriginPro 2019 (v. 9.60) software (OriginLab Corporation, Northampton, MA, USA).
# Purchased mushroom tyrosinase was used without further purification. […] The concentration of the two solution was determined spectrophotometrically (εTyr at 274.6 nm = 1.420; εtyrosinase at 280 nm = 1.426).
# Tyrosinase-dependent diphenol and o-quinone formation was assessed as the appearance of a characteristic absorption band at about 304 and 477 nm, respectively. The inhibition activity was determined according to the following equation [33, 34]:% inhibition = 1 − [(D − C)/(B − A)] ∗ 100 where C and D are the absorbance values at either 304 or 477 nm in presence of inhibitor before mixing and upon reaching the maximum absorbance, respectively, while A and B are the corresponding values in absence of inhibitor.
# [2] = system: B16F10 metastatic cells; conditions: after 24 h of treatment; cited from earlier work
# Text: In the past years, we evaluated the chemical and biological activities of the cyclic decapeptide antamanide, firstly isolated from the lipophilic fraction of an extract of Amanite phalloides by the T. Wieland’s group in 1962 [3]. A characteristic of this peptide is its ability to form complexes of high stability with metal ions, including Na^+, K^+, Ca^2+, Tl^3+, and others. A close correlation has been found between the ion binding properties and the selectivity for Na^+ over K^+ with its antitoxic activity against phallotoxins and the prevention of their accumulation ... || Antamanide is a cyclic decapeptide isolated from the lipophilic fraction of an extract of the green toadstool Amanite phalloides, able to form complexes of high stability with different metal ions. In order to improve the hydrophilicity of this peptide, the Phe residue at either the six or nine positions was replaced with a Gly residue.
# [3] = cited from earlier work
# Text: Antamanide is a cyclic decapeptide isolated from the lipophilic fraction of an extract of the green toadstool Amanite phalloides, able to form complexes of high stability with different metal ions. In order to improve the hydrophilicity of this peptide, the Phe residue at either the six or nine positions was replaced with a Gly residue.
Substance,dependence of tyrosinase inhibitory activity on peptide concentration ([1]; 2 versus 0.2 µM (Figure 4)),"inhibitory activity towards the hydroxylation of tyrosine ([1]; calculated at 303 nm, peptide 2 and 0.2 µM, 50 mM phosphate buffer pH 6.8)","inhibition of the oxidation of DOPA to dopaquinone ([1]; calculated at 477 nm, peptide 2 and 0.2 µM, 50 mM phosphate buffer pH 6.8, three replicates)","effects on tyrosinase activity ([1]; antamanide concentration 20 µM, data not shown)","tyrosinase inhibitory activity ([1]; peptide 2 and 0.2 µM from DMSO stock, L-Tyr substrate, 50 mM phosphate buffer pH 6.8, UV-Vis at 304 and 477 nm, three replicates)",cell proliferation of metastatic melanoma cell line [2],ions selectivity [3]
pseudostellarin A [PS-A],lower when the concentration was higher,low activity,about 30%,,,,
antamanide,,,,absence of effects,did not inhibit; also recorded: No inhibitory activity; also recorded: not able to inhibit,significant reduction of cell proliferation,Ca > Na >> K

# — publication PMC9181589, “Antamanide Analogs as Potential Inhibitors of Tyrosinase” (International Journal of Molecular Sciences, 2022)
